These results are taken from patent publication US12478677B2, “Tunable luminescent organic salts for enhanced imaging and photodynamic therapy” (BOARD OF TRUSTEES OF MICHIGAN STATE UNIVERSITY, priority 2017, dated 2025).

Series [1] can be described thus: Nanoparticle aggregation size from SEM images. In kind it is physicochemical. The note with it: no observable precipitation. From the text: FIG. 6. is a graph showing exemplary nanoparticle aggregation size distribution measured from SEM images (inset, scale bar=100 nm) of CyTPFB. Average aggregate size is 5.6±1.8 nm with no observable precipitation. […] This is achieved by cation-anion pairs of luminescent organic salts that can be modulated to be either non-toxic for enhanced imaging, or phototoxic for improved PDT. […] IR polymethine cyanine dyes, which have been used as effective theranostics are described. […] This is thought to occur through a mechanism mitigated by tumor vascularization, increased retention in cancer cells, and mitochondrial depolarization. Once in the cell, they accumulate in the mitochondria and lysosomes, where irradiation induces generation of cytotoxic oxygen species. A strategy is described for preventing or inhibiting salt dissociation in cells: aggregates are formed via introduction of the salt into an aqueous media by a solvent vehicle, forming particles with diameters of about 5 nm in size with no precipitation observed. […] This is confirmed by high resolution mass spectrometry, electron microscopy, and UV-Vis spectroscopy. […] Normalized absorption data are sown in FIGS. 7A, 7B, and 7C. This is likely due to steric effects, where if the counterion radius is too small it is not able to protect the nanoparticle stability. […]

Series [2] in a line: Salt integrity and aggregation in cell media (mass spectrometry, electron microscopy, UV-Vis). In kind it is physicochemical. To be noted: high resolution mass spectrometry, electron microscopy, UV-Vis spectroscopy. The text has this: FIGS. 7A-7C. […] Organic salts were first dissolved in DMSO and then diluted in water, forming nanoparticles. […] Combinations of H- and J-aggregation of organic salts can be seen by blue-shifted peaks (lower wavelength) and red-shifted peaks (higher wavelength), respectively. The nanoparticles with small hard anions redissolve in cell media likely due to sterics. […] This is achieved by cation-anion pairs of luminescent organic salts that can be modulated to be either non-toxic for enhanced imaging, or phototoxic for improved PDT. […] IR polymethine cyanine dyes, which have been used as effective theranostics are described. […] This is thought to occur through a mechanism mitigated by tumor vascularization, increased retention in cancer cells, and mitochondrial depolarization. Once in the cell, they accumulate in the mitochondria and lysosomes, where irradiation induces generation of cytotoxic oxygen species. A strategy is described for preventing or inhibiting salt dissociation in cells: aggregates are formed via introduction of the salt into an aqueous media by a solvent vehicle, forming particles with diameters of about 5 nm in size with no precipitation observed. […] This is confirmed by high resolution mass spectrometry, electron microscopy, and UV-Vis spectroscopy. […] Normalized absorption data are sown in FIGS. 7A, 7B, and 7C. This is likely due to steric effects, where if the counterion radius is too small it is not able to protect the nanoparticle stability. This can be characterized by the volume-averaged effective spherical radius of the counterions, where the cutoff is at about 0.275 nm.

The structures appear in SMILES notation.

As to `CCN1C(=CC=C2CCCC(C=CC3=[N+](CC)c4ccc5ccccc5c4C3(C)C)=C2Cl)C(C)(C)c2c1ccc1ccccc21.Fc1c(F)c(F)c([B-](c2c(F)c(F)c(F)c(F)c2F)(c2c(F)c(F)c(F)c(F)c2F)c2c(F)c(F)c(F)c(F)c2F)c(F)c1F` [CyTPFB], the Average aggregate size in series [1] came to 5.6±1.8 nm. Besides, in series [2], the “Integrity of salt pairing in cellular environments” value was “maintained in cellular environments”.
